Measurements as given in PMC5658359, “A potent small-molecule inhibitor of the DCN1-UBC12 interaction that selectively blocks cullin 3 neddylation” (Nature Communications, 2017).
Values after ≈ are worked out from the molar mass of the structure shown. Values joined by “and” are separate entries in the source; they are usually repeats but may differ in a detail not shown here. Equal values may be shown once.

Tests used:
DCN1 = DCN1 (Homo sapiens, UniProt Q96GG9); experiment: Competitive fluorescence polarization (FP) binding assay with probe 46, DCN1; parameters: Human DCN1 (residues 58–259) were cloned into a pDEST17 plasmid containing an N-terminal His6 tag; made in house; host or cells: Rosetta2 cells (E. coli); details: for times weaker (less potent) than 30 in binding to DCN1: comparator 30; for Ki: competitive FP, probe 46 5 nM, DCN1 50 nM; for times less potent than 33 in binding to DCN1: comparator 33; for times less potent than 1 in binding to DCN1: comparator 1
DCN1, sequence (Q96GG9 58-259): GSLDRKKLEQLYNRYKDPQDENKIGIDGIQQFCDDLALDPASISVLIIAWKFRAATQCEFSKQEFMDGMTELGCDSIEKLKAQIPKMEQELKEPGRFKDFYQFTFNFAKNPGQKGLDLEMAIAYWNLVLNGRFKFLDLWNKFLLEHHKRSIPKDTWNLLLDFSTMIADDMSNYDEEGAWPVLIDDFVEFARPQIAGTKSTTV
Description: The FP competitive binding experiments were performed to determine the binding affinities of all synthesized DCN1 inhibitors. […] Serial dilutions of DCN1 or DCN2 protein were mixed with the probe (46) to a final volume of 200 μl in the assay buffer (100 mM phosphate buffer, pH = 6.5, with 0.02% Tween-20 and 2% DMSO). The final probe concentration was 5 nM in both DCN1 and DCN2 assays. Plates were incubated at room temperature for 30 min with gentle shaking for equilibrium.
The IC50 and Ki values of compounds were determined in competitive binding experiments. Mixtures of compounds in DMSO (4 μl) and of pre-incubated protein/probe complex solution (196 μl) in the assay buffer were added into assay plates that were incubated at room temperature for 30 min with gentle shaking. Final concentrations of DCN1 protein and fluorescent probe (46) were 50 and 5 nM, respectively. […] FP values were measured as described above. IC50 values were determined by nonlinear regression fitting of the competition curves using the dose response inhibition equation (four parameters, variable slopes) included in the Prism/GraphPad software. K i values were calculated using the methods described earlier.

[1] = Equilibrium aqueous solubility, small-scale shake-flask method; details: for solubility at 24 h: thermodynamic from solid
Description: The equilibrium aqueous solubility of an individual compound at different pH values was determined with a small-scale shake-flask method in Eppendorf tubes. Compounds were added as powder in excess to Britton-Robinson buffer at pH 2.0 or phosphate buffer at pH 7.4 until heterogeneous suspensions were obtained. Suspensions containing excessive compound powder were sonicated in a water bath for 30 min followed by incubation at room temperature with shaking for 24 h to achieve thermodynamic equilibrium. […] Supernatants obtained were filtered using Millipore MultiScreen filter plates equipped with 0.45 µm membranes. Compound concentrations in the saturated solutions were measured by UV spectroscopy at the maximum absorption wavelengths of each compound that were pre-determined by a spectrum scan.

Compound	Ki (DCN1)	further results
CC[C@H](C)[C@@H](CN)NC(=O)[C@H](Cc1nc2ccc(C(C)C)cc2s1)NC=O [compound 31]	2240 ± 369 nM	times weaker (less potent) than 30 in binding to DCN1 (DCN1): 34 times
CC[C@H](C)[C@@H](CN)NC(=O)[C@@H](N)Cc1nc2ccc(C(C)C)cc2s1 [compound 32]	67000 ± 8300 nM	times weaker (less potent) than 30 in binding to DCN1 (DCN1): > 1000 times
CCC(=O)N[C@@H](Cc1nc2ccc(C(C)C)cc2s1)C(=O)N[C@H](CN)[C@@H](C)CC [compound 33]	19 nM	–
CC[C@H](C)[C@@H](CN)NC(=O)[C@H](Cc1nc2ccc(C(C)C)cc2s1)NC(=O)C(C)C [compound 34]	61 nM	–
CCCC(=O)N[C@@H](Cc1nc2ccc(C(C)C)cc2s1)C(=O)N[C@H](CN)[C@@H](C)CC [compound 35]	270 ± 34 nM	–
Ac-MIKLFSLK-NH2 [compound 5]	–	times less potent than 1 in binding to DCN1 (DCN1): 2–3 times
Ac-MIKLFSLKQ-NH2 [compound 4]	–	times less potent than 1 in binding to DCN1 (DCN1): 2–3 times
Ac-MIKLFSLKQQ-NH2 [compound 3]	–	times less potent than 1 in binding to DCN1 (DCN1): 2–3 times

Continued, in another order:

Ki (DCN1)	Compound	further results
149 ± 28 nM	CC[C@H](C)[C@@H](CN)NC(=O)[C@H](Cc1nc2ccc(C(C)C)cc2s1)NC(=O)NC [compound 36]	–
32000 ± 4200 nM	CCC(=O)N[C@@H](Cc1nc2ccc(C(C)C)cc2s1)C(=O)NCCN [compound 37]	times less potent than 33 in binding to DCN1 (DCN1): > 1000 times
7600 ± 380 nM	CCC(=O)N[C@@H](Cc1nc2ccc(C(C)C)cc2s1)C(=O)N[C@@H](C)CN [compound 38]	times less potent than 33 in binding to DCN1 (DCN1): > 400 times
79 nM	CCC(=O)N[C@@H](Cc1nc2ccc(C(C)C)cc2s1)C(=O)N[C@H](CN)Cc1ccccc1 [compound 39]	–
13 nM	CCC(=O)N[C@@H](Cc1nc2ccc(C(C)C)cc2s1)C(=O)N[C@H](CN)C1CCCCC1 [compound 40]	aqueous solubility (in words) [1]: good; solubility at 24 h ([1]; Britton-Robinson buffer, pH 2.02, aqueous buffer): 4.75 mM (≈ 2110 µg/mL); solubility at 24 h ([1]; phosphate buffer, pH 7.4, aqueous buffer): 1.91 mM (≈ 847 µg/mL)
17 nM	CCC(=O)N[C@@H](Cc1nc2ccc(C(C)C)cc2s1)C(=O)N[C@H](CN(C)C)C1CCCCC1 [compound 41]	–
44 nM	CCC(=O)N[C@@H](Cc1nc2ccc(C(C)C)cc2s1)C(=O)N[C@H](CN1CCOCC1)C1CCCCC1 [compound 42]	–
19 nM and 18.5 nM	CCC(=O)N[C@@H](Cc1nc2ccc(C(C)C)cc2s1)C(=O)N[C@H](CNC(=O)CN1CCOCC1)C1CCCCC1 [compound 43]	–
